# Test results from a melting point compilation (Tetko et al.; mined from patent text by program, amines drawn as free bases though some values may be those of a salt).
row,SMILES,melting point
1,N#Cc1nn(-c2c(Cl)cc(C(F)(F)F)cc2Cl)c(Cl)c1C1CC1(Br)Br (stereo unspecified),104 °C
2,CNC(=S)NCCCNc1ccccn1,134 to 135 °C
3,CCOC(=O)c1c(N2CCN(C(=O)c3cccs3)CC2)c2cscc2[nH]c1=O,282 °C
4,O=C(O)CN1CN(c2ccccc2)C2(CCCCC2)C1,162 to 164 °C
5,O=C1c2ccccc2-c2c1c1ccccc1c(=O)n2CCCCCCNS(=O)(=O)c1ccccc1,150 to 152 °C
6,CC(C)(C)OC(=O)N[C@H](C(=O)N1CCC[C@H]1C(=O)OCc1ccccc1)C(C)(C)C,174 °C
7,COC(=O)c1ccc(-c2nnc3n2-c2cccnc2Nc2ccccc2-3)cc1,> 300 °C
8,CC(C)(CO)NC(=O)c1nn(-c2ccc(F)cc2F)c2c1C1CCC2C1 (stereo unspecified),142 to 144 °C
9,CCOC(=O)Cc1ccc(-c2nc(COc3ccc(COc4nn(-c5ccccc5)cc4/C=C/c4csc(COC(=O)c5ccccc5)n4)cc3OC)c(C)o2)cc1,116 to 117 °C
10,O=C(NCC(=O)N1c2ccccc2N(Cc2ccccc2)C(=O)[C@H]2CCC[C@H]21)c1cccs1 (relative stereo),223 °C
11,C#CCOC(=O)N(I)C(C)C(=O)O (stereo unspecified),95 to 99 °C
12,Fc1ccc(-c2cc(NCc3cccc(NCc4ccccc4)n3)n[nH]2)cc1,117 to 118 °C
13,Cc1oc(-c2ccco2)nc1COc1ccc(Cn2cc(CCC(=O)O)c(-c3ccccc3)n2)cc1,152 to 153 °C
14,COC(=O)C1Cc2c(n(C)c3ccccc23)CN1C(=S)SC (stereo unspecified),170 to 171 °C
15,CCCN(CCC)C(=O)Cn1c(-c2ccc(Br)cc2)nc2cccnc21,153 to 155 °C
16,Cc1noc(-c2c(C)nc(Br)n2C)n1,89 °C
17,Cn1nc2ccccc2c1C(=O)NC1CCN(Cc2ccccc2)CC1,167 to 169 °C
18,C[C@H](NC(=O)OC(C)(C)C)C(=O)N(CC(=O)N1CCC[C@H]1C(=O)OCc1ccccc1)C1Cc2ccccc2C1,135 to 136 °C
19,CC(C)Nc1c(-c2ccc(S(C)(=O)=O)cc2)cnn(Cc2ccccc2)c1=O,146 to 147 °C
20,c1cc2c(c3c1CCN3)OCCO2,130 to 132 °C
21,CC(C)c1cccc(C(C)C)c1NC(=O)CN1CCCN(CCCSc2nc3ccccc3o2)CC1,109 to 111 °C

row,SMILES,melting point
1,CC1SC(=O)NN=C1c1ccc(N2CCC(N)CC2)c([N+](=O)[O-])c1 (stereo unspecified),154 to 157 °C
2,COc1cccc(CC2CCN(C(=O)C(=O)Nc3ccc4[nH]c(=O)oc4c3)CC2)c1,110 to 115 °C
3,CCOC(=O)c1cnn2c(-c3cccc(C)n3)ccnc12,135 to 137 °C
4,CCN1CCCC1CNC(=O)c1nc(Cl)c(N)nc1OC (stereo unspecified),155 °C
5,Cc1cc(F)ccc1N(C)C(=O)c1cccc(S(=O)(=O)N(C)c2ccc(Br)cc2)c1,104 to 105 °C
6,CCn1cc(C)c(NS(=O)(=O)c2ccc(NC(C)=O)cc2)nc1=O,235 to 239 °C
7,CCOCc1cc(COc2cc(CC)nc(C)c2OC)ccc1-c1ccccc1S(=O)(=O)Nc1noc(C)c1C,64 to 72 °C
8,Cc1n[nH]c2ccc(-c3nn(C(C)c4oc5ccccc5c(=O)c4-c4cccc(F)c4)c4ncnc(N)c34)cc12 (stereo unspecified),254 to 256 °C
9,COC(=O)COc1ccc(OCC(=O)OC)cc1,96 to 98 °C
10,ON=C1c2ccccc2CSc2ccccc21,241 to 243 °C
11,CCN(CC)CC(=O)OC1CC2(C)C(C(C)=O)CCC2C2CCC3CC(O)C=CC3(C)C12 (stereo unspecified),134 to 138 °C
12,O=C1CCC(N2Cc3c(OCc4ccc5ccccc5c4)cccc3C2=O)C(=O)N1 (stereo unspecified),277 to 279 °C
13,CC1(C)CC(=O)Nc2cc3nc(-c4ccc(CO)cc4)[nH]c3cc21,214 to 232 °C
14,CCOC(=O)C1=C(C)NC(=S)N(C(=O)c2ccc([N+](=O)[O-])cc2)C1c1cccc([N+](=O)[O-])c1 (stereo unspecified),139 to 141 °C
15,Nc1ncc(-c2cccc(Nc3ccc(-c4ccoc4)cc3[N+](=O)[O-])c2)cn1,185 to 186 °C
16,CN1CCN(CCCN2N=C3C(=Cc4ccccc4)CSCC3C2c2ccccc2)CC1 (stereo unspecified),90.5 to 92.5 °C
17,O=C(/C=C/c1ccc(C(F)(F)F)cc1Br)Nc1ccc2[nH]ccc2c1,205 to 207 °C
18,N=C(N)Nc1nc(C(=O)Nc2cccc(C(=O)NC(CC(=O)O)c3ccccc3)c2)cs1 (racemic),235 °C
19,O=C1OCCN1CCN1CCN(C2Cc3cc(Br)ccc3Sc3ccccc32)CC1 (stereo unspecified),170 to 172 °C
20,Cn1c(CCNC(=O)C(F)(F)F)cc2ccccc21,124 to 126 °C
21,Nc1cccc2c1=NC(=O)C=2c1ccccc1,226 to 230 °C

row,SMILES,melting point
1,COc1ccc2c(c1)OC(CNCCCOc1ccc3cccnc3c1)CO2 (stereo unspecified),135 to 142 °C
2,CN(C)Cc1ccc(SC2CCNCC2)cc1,52 °C
3,CCN(CC)CCOc1ccc(Nc2ncc3c(n2)N(C)C(=O)N(Cc2ccc(OC)cc2)C3)cc1,112 °C
4,COC(=O)[C@@H]1CCCN1S(=O)(=O)c1ccc(C)c(COc2cccc3c(C)cc(C)nc23)c1C,50 °C
5,Oc1ccc(-c2ccc(-c3ccc(F)cc3)nc2-c2ccc(OCCN3CCCCC3)cc2)cc1,194 to 195 °C
6,Cc1cc(CO)ccc1NC(=O)N1CCN(c2ccc(NC(=O)Nc3ccccc3F)cc2)CC1,229 to 230 °C
7,CCc1nn(-c2cc([N+](=O)[O-])ccc2Br)c(=O)n1Cc1ccc(-c2ccccc2S(=O)(=O)NC(C)(C)C)cc1F,223 to 225 °C
8,N#CC(C(=O)Nc1ccon1)C(=O)c1nn(-c2ccccc2)c2c1CSc1ccccc1-2 (stereo unspecified),228 to 230 °C
9,COc1cc2c(cc1OC)CN(CCCc1cccc(NC(=O)c3cccc4c(=O)c5cccc(F)c5[nH]c34)c1)CC2,128 °C
10,Cc1cc2c(-c3ccccc3)c(C(=O)NCc3cc(C(F)(F)F)cc(C(F)(F)F)c3)n(CC(N)=O)c(=O)c2cc1C,235 to 237 °C
11,OCc1cc(N2CCCC2)c(Br)cn1,108 to 110 °C
12,CC(=O)C(=CN(C)C)C(=O)c1ccccc1,81 to 83 °C
13,Cc1ccc([C@@H]2c3c(C)c(N4C(=O)CC(c5ccccc5)CC4=O)c(C)c(C)c3OC2(C)C)cc1,118 to 122 °C
14,CC(C)(C)OC(=O)N1CCN(C(=O)C2CCCCN2C(=O)OCc2ccccc2)CC1 (stereo unspecified),102 °C
15,COc1ccc(Oc2ccc(NC(=O)N3CCc4ccccc4CC3)cn2)cc1,156 to 157 °C
16,CN(Cc1ccc(NC(=O)C2=Cc3cc(Br)ccc3N(C3CC3)CC2)cc1)C1CCOCC1,133 to 136 °C
17,COC(=O)C1CCCN1S(=O)(=O)c1ccc(C)cc1 (racemic),93 °C
18,COc1ccc(-c2[nH]nc3c2C(=O)c2c(NC(=O)CN4CCN(c5ccccn5)CC4)cccc2-3)cc1,> 300 °C
19,C#CCCCCCC(=O)Nc1nc2nn(C)cc2c2nc(-c3ccco3)nn12,204 to 208 °C
20,CCCCCCCCCCCCCCCCCCOc1cccc(NCC(=O)OCc2ccccc2)c1,55 to 60 °C
21,Nc1ncc(-c2noc(-c3cnn4c(C(F)(F)F)cc(-c5ccc(C(F)(F)F)cc5)nc34)n2)cn1,254 °C

# Second part, the compound after the results:
row,melting point,SMILES
1,228 to 229 °C,O=C(Nc1ccc2cc(CN3CCCCC3)ccc2c1)c1ccc(-c2ccc(Cl)cc2)nc1
2,172 to 173 °C,CNc1ncc([N+](=O)[O-])c(Cl)n1
3,198 to 204 °C,O=C(O)c1cccc(-c2ccc3c(n2)C(Oc2ccc(Cl)cc2Cl)CC3)c1 (stereo unspecified)
4,166 to 168 °C,Cc1cc(F)c(-n2ccc(O)n2)cc1SCC(F)(F)F
5,101 to 110 °C,CCOC(=O)c1cc(C(C)=O)c(=O)[nH]c1C(=O)OCC
6,123 °C,COc1cc(-c2ccc(C)cc2)cc2oc(=O)c(C)c(C)c12
7,60 to 63 °C,CS(=O)(=O)c1ccc(C(CC2CCCC2)C(N)=O)cc1Br (stereo unspecified)
8,95 to 97 °C,CC(=O)C(=Cc1cccc([N+](=O)[O-])c1)C(=O)OCCCl
9,66.5 °C,C=C(C)CN1C[C@H](C)Nc2c(cc(Cl)cc2[N+](=O)[O-])C1=O
10,131 to 133 °C,O=C1CCC([N+](=O)[O-])C(c2cccc(Cl)c2)N1 (stereo unspecified)
11,159 to 160 °C,O=C(c1cccc(Br)c1)C(Br)C(Br)c1cccc(Br)c1 (stereo unspecified)
12,179 to 180 °C,Oc1ccc(Nc2ccc3cc(Br)ccc3c2)cc1
13,120 °C,O=C(O)Cc1cc(C(=O)c2c(F)cccc2F)ccc1O
14,133 °C,COc1ccc(C2CCCN2S(=O)(=O)c2ccc(Cl)cc2)cc1 (racemic)
15,73 to 75 °C,CCOC(=O)Cc1sc(Sc2cccc(C(=O)OCC)n2)nc1C
16,271 to 272 °C,CSc1n[nH]c(-c2cc(C(C)(C)C)c(O)c(C(C)(C)C)c2)n1
17,208 to 210 °C,CCc1cc(C(=O)c2ccccc2Cl)c(-n2c(C)nnc2CNC(=O)c2cc3ccccc3n2CC(=O)O)s1

row,melting point,SMILES
1,207 to 208 °C,CCc1cc2[nH]ccc(=O)c2c(CC)n1
2,124 to 126 °C,C#Cc1ccc2ccc(C#C)cc2c1
3,227 to 230 °C,C=C(C)C(=O)Nc1cccc(C(=O)NC2=NN(c3c(Cl)cc(Cl)cc3Cl)C(=O)C2c2cc[nH]n2)c1 (stereo unspecified)
4,70 °C,CC(O)c1cc(Cl)cc(Cl)c1O (stereo unspecified)
5,184 to 186 °C,CSC1=NS(=O)(=O)c2cscc21
6,179 to 180 °C,COc1nc(N)nc2c1ncn2/C=C1\CC1(CO)CO
7,203 to 205 °C,NC(=NO)c1nn(-c2c(Cl)cc(C(F)(F)F)cc2Cl)c(N)c1S(=O)C(F)(F)F (stereo unspecified)
8,127 to 130 °C,CC(CCCc1ccccc1)c1cc(O)c2c(c1)N1C(=O)CCC1CC2=O (stereo unspecified)
9,59 to 62 °C,COc1cccc(NC(NC(C)C(C)(C)C)=C(C#N)S(=O)(=O)C(C)C)c1 (stereo unspecified)
10,43 to 44 °C,Cc1cc2c(cc1C(F)(F)F)NCC2
11,80 to 81.5 °C,COc1ccc2c(OC)c(C(C)C)cc(OC)c2c1
12,123 to 127 °C,CCCSc1ncc(CC(Cc2ccccc2)C(=O)O)n1Cc1ccccc1Cl (stereo unspecified)
13,170 to 172 °C,CCc1ccc2ccc(N)nc2n1
14,117 to 118 °C,CCCC(CCC)n1c(CC)nc2c1C(=O)N(C)CN2c1ccc(Cl)cc1Cl
15,70 to 71 °C,CCCCc1nc2ccccc2n1CC(=O)O
16,219 to 221 °C,COc1ccc(-c2ccc(Cl)c(C(=O)NCC34CC5CC(CC(C5)C3)C4)c2)c(C(=O)O)c1
